Measurements reported in paper PMC5218480 (PLoS ONE, 2017).

System: MV-4-11 cells
Experiment: Gene expression microarray analysis (Affymetrix PrimeView) and GSEA
Type: cell-based, human
Parameters: RFU PODN (11730768_x_at) / Fold change /veh PODN (11730768_x_at) / RFU LINC00158 (11744669_a_at) / Fold change /veh LINC00158 (11744669_a_at) / RFU DUSP10 (11751237_a_at) / Fold change /veh DUSP10 (11751237_a_at) / RFU ID3 (11757404_x_at) / Fold change /veh ID3 (11757404_x_at) / RFU PLEKHG5 (11737974_s_at) / Fold change /veh PLEKHG5 (11737974_s_at) / RFU LRRC4B (11730491_at) / Fold change /veh LRRC4B (11730491_at) / RFU GIMAP4 (11747438_a_at) / Fold change /veh GIMAP4 (11747438_a_at) / RFU KRT8 (11758183_x_at) / Fold change /veh KRT8 (11758183_x_at) / RFU CNN1 (11734310_a_at) / Fold change /veh CNN1 (11734310_a_at) / RFU VPS37D (11726825_at) / Fold change /veh VPS37D (11726825_at) / RFU C10orf10 (11716522_x_at) / Fold change /veh C10orf10 (11716522_x_at) / RFU KIR2DL2 /// KIR2DL4 /// KIR2DL5A /// KIR2DL5B /// KIR2DS1 /// KIR2DS2 /// KIR2DS3 /// KIR2DS4 /// KIR3DL3 /// KIR3DL3 /// KIR3DS1 (11738374_at) / Fold change /veh KIR2DL2 /// KIR2DL4 /// KIR2DL5A /// KIR2DL5B /// KIR2DS1 /// KIR2DS2 /// KIR2DS3 /// KIR2DS4 /// KIR3DL3 /// KIR3DL3 /// KIR3DS1 (11738374_at) / RFU C1QL1 (11718748_at) / Fold change /veh C1QL1 (11718748_at) / RFU TMPRSS4 (11747572_a_at) / Fold change /veh TMPRSS4 (11747572_a_at) / RFU HAMP (11756126_x_at) / Fold change /veh HAMP (11756126_x_at) / RFU RNFT2 (11725882_a_at) / Fold change /veh RNFT2 (11725882_a_at) / RFU NR4A2 (11747474_a_at) / Fold change /veh NR4A2 (11747474_a_at) / RFU ABCC12 (11746883_a_at) / Fold change /veh ABCC12 (11746883_a_at) / RFU TMEM136 (11760407_x_at) / Fold change /veh TMEM136 (11760407_x_at) / RFU CLDN22 /// WWC2 (11732394_at) / Fold change /veh CLDN22 /// WWC2 (11732394_at) / RFU HLA-DPB1 (11760878_x_at) / Fold change /veh HLA-DPB1 (11760878_x_at) / RFU SPINT1 (11716480_a_at) / Fold change /veh SPINT1 (11716480_a_at) / RFU GAP43 (11754022_s_at) / Fold change /veh GAP43 (11754022_s_at) / RFU A4GNT (11735810_at) / Fold change /veh A4GNT (11735810_at) / RFU PRB3 (11715151_x_at) / Fold change /veh PRB3 (11715151_x_at) / RFU TUBB4B (11761932_at) / Fold change /veh TUBB4B (11761932_at) / RFU CAPN14 (11732068_a_at) / Fold change /veh CAPN14 (11732068_a_at) / RFU TMCC2 (11721928_a_at) / Fold change /veh TMCC2 (11721928_a_at) / RFU IRGQ (11745062_a_at) / Fold change /veh IRGQ (11745062_a_at) / RFU FAM174B (11720279_a_at) / Fold change /veh FAM174B (11720279_a_at) / RFU TMPRSS4 (11748680_a_at) / Fold change /veh TMPRSS4 (11748680_a_at) / RFU FAM212B (11763350_a_at) / Fold change /veh FAM212B (11763350_a_at) / RFU PLEKHG5 (11743358_a_at) / Fold change /veh PLEKHG5 (11743358_a_at) / RFU ZSCAN30 (11745921_a_at) / Fold change /veh ZSCAN30 (11745921_a_at) / RFU CMKLR1 (11741424_a_at) / Fold change /veh CMKLR1 (11741424_a_at) / RFU LOC101060620 /// MAPK8IP1 (11723275_at) / Fold change /veh LOC101060620 /// MAPK8IP1 (11723275_at) / RFU SPTSSB (11747773_x_at) / Fold change /veh SPTSSB (11747773_x_at) / RFU PRSS12 (11739890_at) / Fold change /veh PRSS12 (11739890_at) / RFU BIN1 (11741810_x_at) / Fold change /veh BIN1 (11741810_x_at) / RFU WNT11 (11732464_a_at) / Fold change /veh WNT11 (11732464_a_at) / RFU C10orf10 (11716521_a_at) / Fold change /veh C10orf10 (11716521_a_at) / RFU C5orf56 (11738089_at) / Fold change /veh C5orf56 (11738089_at) / RFU CYB561 (11721691_x_at) / Fold change /veh CYB561 (11721691_x_at) / RFU ANKRD19P (11752326_a_at) / Fold change /veh ANKRD19P (11752326_a_at) / RFU OR2T12 /// OR2T33 /// OR2T8 (11738714_s_at) / Fold change /veh OR2T12 /// OR2T33 /// OR2T8 (11738714_s_at) / RFU VCAN (11748164_a_at) / Fold change /veh VCAN (11748164_a_at) / RFU JSRP1 (11732532_at) / Fold change /veh JSRP1 (11732532_at) / RFU KRTAP10-11 (11738290_x_at) / Fold change /veh KRTAP10-11 (11738290_x_at) / RFU MYO3A (11730013_a_at) / Fold change /veh MYO3A (11730013_a_at) / RFU EBF3 (11725865_a_at) / Fold change /veh EBF3 (11725865_a_at) / RFU CAMK2N1 (11719241_x_at) / Fold change /veh CAMK2N1 (11719241_x_at) / RFU C5orf56 (11738088_a_at) / Fold change /veh C5orf56 (11738088_a_at) / RFU OLFML3 (11715873_a_at) / Fold change /veh OLFML3 (11715873_a_at) / RFU LOC100653217 /// NTM (11731650_a_at) / Fold change /veh LOC100653217 /// NTM (11731650_a_at) / RFU MAPK11 (11762145_a_at) / Fold change /veh MAPK11 (11762145_a_at) / RFU FIZ1 (11724087_x_at) / Fold change /veh FIZ1 (11724087_x_at) / RFU OASL (11726364_x_at) / Fold change /veh OASL (11726364_x_at) / RFU SOX15 (11748057_x_at) / Fold change /veh SOX15 (11748057_x_at) / RFU CD79A (11719716_a_at) / Fold change /veh CD79A (11719716_a_at) / RFU HIST1H1D (11736915_at) / Fold change /veh HIST1H1D (11736915_at) / RFU CASKIN2 (11723855_a_at) / Fold change /veh CASKIN2 (11723855_a_at) / RFU LOC730098 (11760151_x_at) / Fold change /veh LOC730098 (11760151_x_at) / RFU OR4N2 (11742367_at) / Fold change /veh OR4N2 (11742367_at) / RFU PRRT2 (11749266_a_at) / Fold change /veh PRRT2 (11749266_a_at) / RFU SNX32 (11753110_a_at) / Fold change /veh SNX32 (11753110_a_at) / RFU CDHR5 (11726645_a_at) / Fold change /veh CDHR5 (11726645_a_at) / RFU RCAN1 (11760418_a_at) / Fold change /veh RCAN1 (11760418_a_at) / RFU FAM167A (11723789_a_at) / Fold change /veh FAM167A (11723789_a_at) / RFU FAM26E (11764081_at) / Fold change /veh FAM26E (11764081_at) / RFU ISYNA1 (11749810_s_at) / Fold change /veh ISYNA1 (11749810_s_at) / RFU ACY1 (11761880_at) / Fold change /veh ACY1 (11761880_at) / RFU 11764098_at / Fold change /veh 11764098_at / RFU SAMD14 (11745864_x_at) / Fold change /veh SAMD14 (11745864_x_at) / RFU NPB (11741838_a_at) / Fold change /veh NPB (11741838_a_at) / RFU TMPRSS6 (11731388_a_at) / Fold change /veh TMPRSS6 (11731388_a_at) / RFU KRTAP10-2 (11738614_at) / Fold change /veh KRTAP10-2 (11738614_at) / RFU ARHGAP8 /// PRR5-ARHGAP8 (11727945_x_at) / Fold change /veh ARHGAP8 /// PRR5-ARHGAP8 (11727945_x_at) / RFU KRTAP5-7 /// NADSYN1 (11734609_at) / Fold change /veh KRTAP5-7 /// NADSYN1 (11734609_at) / RFU RASL12 (11751679_a_at) / Fold change /veh RASL12 (11751679_a_at) / RFU CDKN2B (11736163_a_at) / Fold change /veh CDKN2B (11736163_a_at) / RFU PRF1 (11729649_at) / Fold change /veh PRF1 (11729649_at) / RFU, ZNF638 /// ZNF638-IT1 / Fold change vs veh, ZNF638 /// ZNF638-IT1 / RFU, PANK3 / Fold change vs veh, PANK3 / RFU, SH3YL1 / Fold change vs veh, SH3YL1 / RFU, ZEB2 / Fold change vs veh, ZEB2 / RFU, NRIP1 / Fold change vs veh, NRIP1 / RFU, PTTG1IP / Fold change vs veh, PTTG1IP / RFU, CAPN2 / Fold change vs veh, CAPN2 / RFU, MED14 / Fold change vs veh, MED14 / RFU, SNORA58 / Fold change vs veh, SNORA58 / RFU, C1orf63 / Fold change vs veh, C1orf63 / RFU, LRRFIP1 / Fold change vs veh, LRRFIP1 / RFU, NDUFAF7 / Fold change vs veh, NDUFAF7 / RFU, SLC12A2 / Fold change vs veh, SLC12A2 / RFU, IBTK / Fold change vs veh, IBTK / RFU, ESF1 / Fold change vs veh, ESF1 / Fold change vs veh, TMEM50B / RFU, TAOK1 / Fold change vs veh, TAOK1 / RFU, ACBD3 / Fold change vs veh, ACBD3 / RFU, TMA16 / Fold change vs veh, TMA16 / RFU, RWDD3 / Fold change vs veh, RWDD3 / RFU, BCAT1 / Fold change vs veh, BCAT1 / RFU, EDEM3 / Fold change vs veh, EDEM3 / RFU, TMEM33 / Fold change vs veh, TMEM33 / RFU, WDR75 / Fold change vs veh, WDR75 / RFU, AHCTF1 / Fold change vs veh, AHCTF1 / RFU, TFRC / Fold change vs veh, TFRC / RFU, ZDHHC17 / Fold change vs veh, ZDHHC17 / RFU, NOM1 / Fold change vs veh, NOM1 / RFU, ARL8B / Fold change vs veh, ARL8B / RFU, ZBTB11 / Fold change vs veh, ZBTB11 / RFU, TAMM41 / Fold change vs veh, TAMM41 / RFU, KIAA1704 /// LOC100996395 / Fold change vs veh, KIAA1704 /// LOC100996395 / RFU, ING1 / Fold change vs veh, ING1 / RFU, TRMT61B / Fold change vs veh, TRMT61B / RFU, FUBP3 / Fold change vs veh, FUBP3 / RFU, TP53 / Fold change vs veh, TP53 / RFU, TNKS2 / Fold change vs veh, TNKS2 / RFU, ZFP14 / Fold change vs veh, ZFP14 / RFU, ACTR2 / Fold change vs veh, ACTR2 / RFU, PPP3R1 / Fold change vs veh, PPP3R1 / RFU, PIK3R1 / Fold change vs veh, PIK3R1 / RFU, HNRNPA1 / Fold change vs veh, HNRNPA1 / RFU, RNF170 / Fold change vs veh, RNF170 / RFU, ZNF28 / Fold change vs veh, ZNF28 / RFU, RNGTT / Fold change vs veh, RNGTT / RFU, OGT / Fold change vs veh, OGT / RFU, BRD1 / Fold change vs veh, BRD1 / RFU, MARS / Fold change vs veh, MARS / RFU, ZNF655 / Fold change vs veh, ZNF655 / RFU, FAHD1 / Fold change vs veh, FAHD1 / RFU, BDP1 / Fold change vs veh, BDP1 / RFU, LRRCC1 / Fold change vs veh, LRRCC1 / RFU, ARID1A / Fold change vs veh, ARID1A / RFU, ZNF146 / Fold change vs veh, ZNF146 / RFU, ZNF330 / Fold change vs veh, ZNF330 / RFU, GPN3 / Fold change vs veh, GPN3 / RFU, C9orf123 / Fold change vs veh, C9orf123 / RFU, N4BP2L2 / Fold change vs veh, N4BP2L2 / RFU, ARFIP1 / Fold change vs veh, ARFIP1 / RFU, FAM179B / Fold change vs veh, FAM179B / RFU, BCL10 / Fold change vs veh, BCL10 / RFU, UHRF1BP1L / Fold change vs veh, UHRF1BP1L / RFU, BET1 / Fold change vs veh, BET1 / RFU, CNOT2 / Fold change vs veh, CNOT2 / RFU, ZNF268 / Fold change vs veh, ZNF268 / Fold change vs veh, ZNF507 / RFU, DGCR2 / Fold change vs veh, DGCR2 / RFU, WDSUB1 / Fold change vs veh, WDSUB1 / Fold change vs veh, HSP90B1 /// MIR3652 / RFU, ADSS / Fold change vs veh, ADSS / RFU, GK / Fold change vs veh, GK / RFU, ZNF148 / Fold change vs veh, ZNF148 / RFU, TAF9 / Fold change vs veh, TAF9 / RFU, SLC1A5 / Fold change vs veh, SLC1A5 / RFU, SLMO2 / Fold change vs veh, SLMO2 / RFU, ABCC4 / Fold change vs veh, ABCC4 / RFU, LOC101060439 /// RAP1B / Fold change vs veh, LOC101060439 /// RAP1B / RFU, RFX7 / Fold change vs veh, RFX7 / RFU, GTPBP10 / Fold change vs veh, GTPBP10 / RFU, CNEP1R1 / Fold change vs veh, CNEP1R1 / RFU, BIVM-ERCC5 /// ERCC5 / Fold change vs veh, BIVM-ERCC5 /// ERCC5 / RFU, ILF3 / Fold change vs veh, ILF3 / RFU 11762660_at / Fold change /veh 11762660_at / RFU VCAN (11757783_s_at) / Fold change /veh VCAN (11757783_s_at) / RFU DDX43 (11728927_at) / Fold change /veh DDX43 (11728927_at) / RFU KRT8 (11758188_x_at) / Fold change /veh KRT8 (11758188_x_at) / RFU NKD1 (11759106_at) / Fold change /veh NKD1 (11759106_at) / RFU SRD5A1 (11742802_a_at) / Fold change /veh SRD5A1 (11742802_a_at) / RFU TPSAB1 /// TPSB2 (11721975_s_at) / Fold change /veh TPSAB1 /// TPSB2 (11721975_s_at) / RFU GSTM3 (11746129_a_at) / Fold change /veh GSTM3 (11746129_a_at) / RFU IL23R (11737362_x_at) / Fold change /veh IL23R (11737362_x_at) / RFU TMEM51 (11727254_a_at) / Fold change /veh TMEM51 (11727254_a_at) / RFU PIWIL2 (11732686_x_at) / Fold change /veh PIWIL2 (11732686_x_at) / RFU ORM1 (11744905_x_at) / Fold change /veh ORM1 (11744905_x_at) / RFU CCDC152 (11743942_at) / Fold change /veh CCDC152 (11743942_at) / RFU ECM1 (11717891_a_at) / Fold change /veh ECM1 (11717891_a_at) / RFU IL23R (11748794_a_at) / Fold change /veh IL23R (11748794_a_at) / RFU TNFAIP8L3 (11732012_x_at) / Fold change /veh TNFAIP8L3 (11732012_x_at) / RFU MBOAT4 (11741988_at) / Fold change /veh MBOAT4 (11741988_at) / RFU 11764193_at / Fold change /veh 11764193_at / RFU TMEM53 (11763286_at) / Fold change /veh TMEM53 (11763286_at) / RFU MAGEB2 (11727129_at) / Fold change /veh MAGEB2 (11727129_at) / RFU TMEM200A (11744735_a_at) / Fold change /veh TMEM200A (11744735_a_at) / RFU CCDC152 (11751479_a_at) / Fold change /veh CCDC152 (11751479_a_at) / RFU FAM211A (11726209_a_at) / Fold change /veh FAM211A (11726209_a_at) / RFU RGS16 (11746705_a_at) / Fold change /veh RGS16 (11746705_a_at) / RFU VCAN (11755009_s_at) / Fold change /veh VCAN (11755009_s_at) / RFU RHOB (11743442_s_at) / Fold change /veh RHOB (11743442_s_at) / RFU RGS16 (11720943_a_at) / Fold change /veh RGS16 (11720943_a_at) / RFU RGS16 (11720944_at) / Fold change /veh RGS16 (11720944_at) / RFU, VPS4B / Fold change vs veh, VPS4B / RFU, CREB1 / Fold change vs veh, CREB1 / RFU, DNAJC13 / Fold change vs veh, DNAJC13 / RFU, GNAQ / Fold change vs veh, GNAQ / RFU, CDK5R1 / Fold change vs veh, CDK5R1 / RFU, ZRANB3 / Fold change vs veh, ZRANB3 / RFU, CUL4A / Fold change vs veh, CUL4A / RFU, CCNY / Fold change vs veh, CCNY / RFU, UFL1 / Fold change vs veh, UFL1 / RFU, COG3 / Fold change vs veh, COG3 / RFU, DIAPH2 / Fold change vs veh, DIAPH2 / RFU, SKA2 / Fold change vs veh, SKA2 / RFU, AFF3 / Fold change vs veh, AFF3 / RFU, LMF1 / Fold change vs veh, LMF1 / RFU, IPO11 / Fold change vs veh, IPO11 / RFU, DFFB / Fold change vs veh, DFFB / RFU, FOXP1 / Fold change vs veh, FOXP1 / RFU, CARD8 / Fold change vs veh, CARD8 / RFU, STRN3 / Fold change vs veh, STRN3 / RFU, ADK / Fold change vs veh, ADK / RFU, RASSF2 / Fold change vs veh, RASSF2 / RFU, WIPF1 / Fold change vs veh, WIPF1 / RFU, LARP1B / Fold change vs veh, LARP1B / RFU, RASA1 / Fold change vs veh, RASA1 / RFU, RB1 / Fold change vs veh, RB1 / RFU, PPFIA1 / Fold change vs veh, PPFIA1 / RFU, MAT2A / Fold change vs veh, MAT2A / RFU, CCT5 / Fold change vs veh, CCT5 / RFU, WDR92 / Fold change vs veh, WDR92 / RFU, CUX1 / Fold change vs veh, CUX1 / RFU, TTC7A / Fold change vs veh, TTC7A / RFU, TMEM135 / Fold change vs veh, TMEM135 / RFU, DEPTOR / Fold change vs veh, DEPTOR / RFU, CPM / Fold change vs veh, CPM / RFU, DNAJB6 / Fold change vs veh, DNAJB6 / RFU, CACNA2D3 / Fold change vs veh, CACNA2D3 / RFU, DTX4 / Fold change vs veh, DTX4 / RFU, TFCP2 / Fold change vs veh, TFCP2 / RFU, GMCL1 /// GMCL1P1 / Fold change vs veh, GMCL1 /// GMCL1P1 / RFU, AEBP2 / Fold change vs veh, AEBP2 / RFU, SNHG1 /// SNORD22 /// SNORD25 /// SNORD26 /// SNORD27 /// SNORD28 /// SNORD29 /// SNORD31 / Fold change vs veh, SNHG1 /// SNORD22 /// SNORD25 /// SNORD26 /// SNORD27 /// SNORD28 /// SNORD29 /// SNORD31 / Fold change (Aza/veh), C12orf56 (ProbeSet 11735607_a_at) / Fold change (ACY-1035/veh), C12orf56 (ProbeSet 11735607_a_at) / Fold change (Aza/veh), FGFR1OP (ProbeSet 11751329_s_at) / Fold change (ACY-1035/veh), FGFR1OP (ProbeSet 11751329_s_at) / Fold change (Aza/veh), VPS36 (ProbeSet 11739960_a_at) / Fold change (ACY-1035/veh), VPS36 (ProbeSet 11739960_a_at) / RFU SYPL1 (11715823_x_at) / Fold change /veh SYPL1 (11715823_x_at) / RFU IGFBP7 (11715501_s_at) / Fold change /veh IGFBP7 (11715501_s_at) / RFU REEP3 (11722064_at) / Fold change /veh REEP3 (11722064_at) / RFU IGLL1 (11728026_x_at) / Fold change /veh IGLL1 (11728026_x_at): dose or concentration left out as unconfirmed
Details: MV-4-11 cells, 48 hours

`Nc1ncn([C@@H]2O[C@H](CO)[C@@H](O)[C@H]2O)c(=O)n1` [azacitidine] was tested, and the “Fold change /veh CMKLR1 (11741424_a_at)” value was 1.02.
